Experimental data taken from patent publication US7381841B2, “Pentafluorosulfanylphenyl-substituted benzoylguanidines, processes for their preparation, their use as medicament or diagnostic aid, and medicament comprising them” (Sanofi-Aventis Deutschland GmbH, priority 2003, dated 2008).
pIC50: −log10 of the molar value.

Assays:
[1] = target: T1, human NHE-1 (Homo sapiens, UniProt P19634); test: NHE-1 inhibition, FLIPR assay measuring recovery of pHi in transfected cell lines; type: cell-based; conditions: pHi recovery in transfected LAP-1 cell lines expressing human NHE-1, read-out: NHE1 inhibition IC50
T1 construct: expressed in transfected cells; host or cells: LAP-1 (parental cell line without endogenous NHE activity), G418-selected transfectants
T1 sequence (P19634 whole entry): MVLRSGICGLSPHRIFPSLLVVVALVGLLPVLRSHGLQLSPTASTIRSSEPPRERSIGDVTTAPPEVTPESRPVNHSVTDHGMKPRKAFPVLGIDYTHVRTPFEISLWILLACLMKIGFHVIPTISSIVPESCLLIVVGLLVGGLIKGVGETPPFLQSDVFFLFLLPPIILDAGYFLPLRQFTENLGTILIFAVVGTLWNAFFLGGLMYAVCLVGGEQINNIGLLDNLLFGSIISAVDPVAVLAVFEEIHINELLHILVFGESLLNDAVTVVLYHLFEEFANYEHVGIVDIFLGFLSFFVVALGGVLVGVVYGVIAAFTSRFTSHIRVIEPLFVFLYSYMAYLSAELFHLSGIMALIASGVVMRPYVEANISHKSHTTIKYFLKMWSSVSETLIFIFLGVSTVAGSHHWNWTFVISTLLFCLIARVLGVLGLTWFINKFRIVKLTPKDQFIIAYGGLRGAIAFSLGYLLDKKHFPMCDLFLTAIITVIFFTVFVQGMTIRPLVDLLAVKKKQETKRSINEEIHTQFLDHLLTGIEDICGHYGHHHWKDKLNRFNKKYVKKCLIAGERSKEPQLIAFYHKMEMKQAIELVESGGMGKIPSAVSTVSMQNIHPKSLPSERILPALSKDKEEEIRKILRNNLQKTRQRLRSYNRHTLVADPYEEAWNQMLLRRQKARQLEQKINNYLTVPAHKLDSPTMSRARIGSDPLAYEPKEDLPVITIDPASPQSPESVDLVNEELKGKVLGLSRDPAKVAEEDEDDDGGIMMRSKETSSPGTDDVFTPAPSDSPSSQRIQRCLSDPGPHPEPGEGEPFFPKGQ
Method: The NHE-1 inhibition IC50 was determined in an FLIPR assay by measurement of the recovery in pHi in transfected cell lines which express human NHE-1.
The assay was carried out in an FLIPR (fluorescent imaging plate reader) with black-walled 96-well microtiter plates with clear bases.
The growth medium for the transfected cells (Iscove+10% fetal calf serum) additionally contained G418 as selection antibiotic in order to ensure the presence of the transfected sequences.
The actual assay started with the removal of the growth medium and addition of 100 μl of loading buffer per well (5 μM BCECF-AM [2′,7′-bis(carboxyethyl)-5- (and -6-)carboxyfluorescein, acetoxymethyl ester] in 20 mM NH4Cl, 115 mM choline chloride, 1 mM MgCI2, 1 mM CaCI2, 5 mM KCI, 20 mM HEPES, 5 mM glucose; pH 7.4 [adjusted with KOH]). The cells were then incubated at 37° C. for 20 minutes. This incubation led to loading of the cells with the fluorescent dye whose fluorescence intensity depends on pHi, and with NH4Cl which makes the cells slightly alkaline. The nonfluorescent dye precursor BCECF-AM is, as ester, membrane-permeable. The actual dye BCECF is not membrane-permeable but is liberated inside cells by esterases.
After this incubation for 20 minutes, the loading buffer which contained NH4Cl and free BCECF-AM was removed by washing three times in a cell washer (Tecan Columbus) with in each case 400 μl of washing buffer (133.8 mM choline chloride, 4.7 mM KCI, 1.25 mM MgCI2, 1.25 mM CaCI2, 0.97 mM K2HPO4, 0.23 mM KH2PO4, 5 mM HEPES, 5 mM glucose; pH 7.4 [adjusted with KOH]). The residual volume remaining in the wells was 90 μl (50-125 μl possible). This washing step removed the free BCECF-AM and resulted, as a consequence of the removal of the external NH4^+ ions, in intracellular acidification (˜pHi 6.3-6.4).
This may eventually lead to cell death if it persists long enough.
It was important at this point that the washing buffer was sodium-free (<1 mM) because extracellular sodium ions would lead to an instantaneous recovery of the pHi through the activity of the cloned NHE isoforms.
It was likewise important for all the buffers used (loading buffer, washing buffer, recovery buffer) not to contain any HCO3^− ions, because the presence of bicarbonate would lead to activation of interfering bicarbonate-dependent pHi regulatory systems present in the parental LAP-1 cell line.
The microtiter plates with the acidified cells were then (up to 20 minutes after the acidification) transferred to the FLIPR. In the FLIPR, the intracellular fluorescent dye was excited by light with a wavelength of 488 nm generated by an argon laser, and the measured parameters (laser power, illumination time and aperture of the CCD camera incorporated in the FLIPR) were chosen so that the average fluorescence signal per well was between 30 000 and 35 000 relative fluorescence units.
The actual measurement in the FLIPR started with a photograph being taken by the CCD camera every two seconds under software control. After ten seconds, the recovery of the intracellular pH was initiated by adding 90 μl of recovery buffer (133.8 mM NaCl, 4.7 mM KCI, 1.25 mM MgCI2, 1.25 mM CaCI2, 0.97 mM K2HPO4, 0.23 mM KH2PO4, 10 mM HEPES, 5 mM glucose; pH 7.4 [adjusted with NaOH]) by means of the 96-well pipettor incorporated in the FLIPR.
Positive control wells (100% NHE activity) were those to which pure recovery buffer was added, while negative controls (0% NHE activity) received washing buffer. Recovery buffer with twice the concentration of test substance was added to all the other wells. Measurement in the FLIPR terminated after 60 measurements (two minutes).
The raw data are exported into the ActivityBase program. This program firstly calculates the NHE activities for each tested substance concentration and, from these, the IC50 values for the substances. […]

[2] = In vivo pharmacokinetics, profiling with the "n in one method"; conditions: iv; fasting male beagle dog, single i.v. bolus into jugular vein, about 1 mg/kg of each substance, given together, plasma; read-out: Half-life t½ (converted)
Method: In vivo pharmacokinetics—profiling with the “n in one method”
The exposure data and the half-life were determined as characteristic follows:
Two NHE-1 inhibiotors of the invention (example 1 and example 9) and a known NHE-1 reference subtance (cariporide)
[drawing 36] where dissolved in the slightly acidic aqueous medium (water, pH 4, adjusted with 1 M hydrochloric acid). The concentration of the aqueous formulation prepared in this way was about 1.5 mg of each substance per 1 g of solution. 10 ml of this formulation were administered once as bolus by means of a catheter into the jugular vein of a fasting male beagle dog (dose about 1 mg of each administered substance per kg of the dog's body weight). Blood samples were obtained by means of a second catheter after 5 min, 15 min, 30 min, 1 h, 2 h, 4 h, 8 h and 24 h, and heparinized plasma was prepared by centrifugation at 1000 G in appropriate plasma tubes.
The plasma samples were worked up and quantified by MS/MS after an HPLC separation. Simultaneous determination of a plurality of substances was possible with this method owing to its high specificity. The half-lives could be calculated using the WinNonlin computer program from the concentration-time plots (see FIG. 1) and compared with the half-life of the known NHE-1 reference substance. Since the various substances were measured in the same animal at the same time, the result was an accurate comparison of the compounds, and a ranking of the half-lives was possible.

Compound | pIC50 [1] | half-life [2] | melting point
Cc1cc(-c2ccc(S(F)(F)(F)(F)F)cc2)c(S(C)(=O)=O)cc1C(=O)N=C(N)N [Example 9, N-(2-Methanesulfonyl-5-methyl-4′-pentafluorosulfanylbiphenyl-4-carbonyl)guanidine] | 8.68 | 39.9 h | 238 to 240 °C
Cc1cc(Nc2cccc(S(F)(F)(F)(F)F)c2)c(S(C)(=O)=O)cc1C(=O)N=C(N)N [Example 5, N-[5-Methanesulfonyl-2-methyl-4-(3-pentafluorosulfanylphenylamino)-benzoyl]guanidine] | 8.19 | – | –
Cc1cc(Nc2ccc(S(F)(F)(F)(F)F)cc2)c(S(C)(=O)=O)cc1C(=O)N=C(N)N [Example 6, N-[5-Methanesulfonyl-2-methyl-4-(4-pentafluorosulfanylphenyl-amino)benzoyl]guanidine] | 7.57 | – | –
Cc1cc(Oc2cccc(S(F)(F)(F)(F)F)c2)c(S(C)(=O)=O)cc1C(=O)N=C(N)N [Example 1, N-[5-Methanesulfonyl-2-methyl-4-(3-pentafluorosulfanylphenoxy)-benzoyl]guanidine] | 8.41 | 20.2 h | 166 to 168 °C
Cc1cc(Oc2ccc(S(F)(F)(F)(F)F)cc2)c(S(C)(=O)=O)cc1C(=O)N=C(N)N [Example 2, N-[5-Methanesulfonyl-2-methyl-4-(4-pentafluorosulfanylphenoxy)-benzoyl]guanidine] | 8.72 | – | –
Cc1cc(N(C)c2ccc(S(F)(F)(F)(F)F)cc2)c(S(C)(=O)=O)cc1C(=O)N=C(N)N [Example 8, N-{5-Methanesulfonyl-2-methyl-4-[methyl-(4-pentafluorosulfanyl-phenyl)amino]benzoyl}guanidine] | 8.43 | – | –
Cc1cc(-c2ccc(S(F)(F)(F)(F)F)cc2C)c(S(C)(=O)=O)cc1C(=O)N=C(N)N [Example 11, N-(2-Methanesulfonyl-5,2′-dimethyl-4′-pentafluorosulfanylbiphenyl-4-carbonyl)guanidine] | 7.09 | – | –
Cc1cc(N(C)c2cccc(S(F)(F)(F)(F)F)c2)c(S(C)(=O)=O)cc1C(=O)N=C(N)N [Example 7, N-{5-Methanesulfonyl-2-methyl-4-[methyl-(3-pentafluorosulfanylphenyl)-amino]benzoyl}guanidine] | 7.84 | – | –
Cc1cc(Sc2ccc(S(F)(F)(F)(F)F)cc2)c(S(C)(=O)=O)cc1C(=O)N=C(N)N [Example 3, N-[5-Methanesulfonyl-2-methyl-4-(4-pentafluorosulfanylphenylsulfanyl)benzoyl]-guanidine] | 8.33 | – | –
CC(C)c1ccc(C(=O)N=C(N)N)cc1S(C)(=O)=O.CS(=O)(=O)O [cariporide, reference compound] | – | 4.1 h | –
Cc1cc(S(=O)(=O)c2ccc(S(F)(F)(F)(F)F)cc2)c(S(C)(=O)=O)cc1C(=O)N=C(N)N [Example 4, N-[5-Methanesulfonyl-2-methyl-4-(4-pentafluorosulfanylphenylsulfonyl)-benzoyl]guanidine] | 5.33 | – | –
Cc1cc(-c2cccc(S(F)(F)(F)(F)F)c2)c(S(C)(=O)=O)cc1C(=O)N=C(N)N [Example 10, N-(2-Methanesulfonyl-5-methyl-3′-pentafluorosulfanylbiphenyl-4-carbonyl)guanidine] | 7.41 | – | 169 to 175 °C
